Test results taken from US20050281750A1, “Sprayable compositions comprising a combination of pharmaceutical active agents, an alcohol phase, at least one volatile silicone and a non-volatile oily phase” (GALDERMA S.A., priority 2004, published 2005).

How the values were obtained:
Assay type in all cases: physicochemical
[1] = Stability of calcitriol in ethanol (HPLC assay against a reference substance); conditions: for Measured concentration of calcitriol in % relative to T0: 30 ppm in absolute ethanol, 0.02% BHT
Excerpt: (§1) Calcitriol stability data were generated in various excipients, including ethanol 100, an ethanol 100 (75%)/cyclomethicone 5 (25%) mixture, or oils such as Miglyol 812 and Cetiol SN. • a) Stability of Calcitriol in Ethanol: Solution of 30 ppm of calcitriol in qsp 100% of absolute ethanol, in the presence of 0.02% of BHT. Technique of HPLC assay against a reference substance. At the starting time (T0) the composition is considered to comprise 100% of calcitriol. Measured concentration of calcitriol in % relative to T0: […]

[2] = Stability of calcitriol in ethanol/cyclopentasiloxane (HPLC assay against a reference substance); conditions: for Measured concentration of calcitriol in % relative to T0: 30 ppm in 75% absolute ethanol + 25% cyclopentasiloxane, 0.02% BHT
Excerpt: as §1, with “Ethanol: b) Stability of Calcitriol in Ethanol/Cyclopentasiloxane:” for “Ethanol:”, “qsp 75%” for “qsp 100%”, “absolute ethanol+25% of cyclopentasiloxane,” for “absolute ethanol,”

[3] = Stability of calcitriol in Miglyol 812 (caprylic/capric triglycerides) (HPLC assay); conditions: for Measured concentration of calcitriol in % relative to T0: 30 ppm in Miglyol 812, 0.4% BHT
Excerpt: as §1, with “Ethanol: c) Stability of Calcitriol in Miglyol 812 (Caprylic/Capric Triglycerides):” for “Ethanol:”, “Miglyol 812,” for “absolute ethanol,”, “0.4%” for “0.02%”

[4] = Stability of calcitriol in Cetiol SN (cetearyl isononanoate) (HPLC assay); conditions: for Measured concentration of calcitriol in % relative to T0: 30 ppm in Cetiol SN, 0.4% BHT
Excerpt: as §1, with “Ethanol: d) Stability of Calcitriol in Cetiol SN (Cetearyl Isononanoate):” for “Ethanol:”, “Cetiol SN (cetearyl isononanoate),” for “absolute ethanol,”, “0.4%” for “0.02%”

## C=C1/C(=C\C=C2/CCC[C@]3(C)[C@@H]([C@H](C)CCCC(C)(C)O)CC[C@@H]23)C[C@@H](O)C[C@@H]1O [calcitriol]
[1]; +4° C., T 1 week
  Measured concentration of calcitriol in % relative to T0: 97.7%
[1]; +4° C., T 2 weeks
  Measured concentration of calcitriol in % relative to T0: 98.6%
[1]; +4° C., T 3 weeks
  Measured concentration of calcitriol in % relative to T0: 98.1%
[1]; +4° C., T 4 weeks
  Measured concentration of calcitriol in % relative to T0: 97.7%
[1]; +30° C., T 2 weeks
  Measured concentration of calcitriol in % relative to T0: 93.4%
[1]; +30° C., T 4 weeks
  Measured concentration of calcitriol in % relative to T0: 93.0%
[1]; −18° C., T 1 week
  Measured concentration of calcitriol in % relative to T0: 100.9%
[1]; −18° C., T 2 weeks
  Measured concentration of calcitriol in % relative to T0: 100.5%
[1]; −18° C., T 3 weeks
  Measured concentration of calcitriol in % relative to T0: 99.5%
[1]; −18° C., T 4 weeks
  Measured concentration of calcitriol in % relative to T0: 99.5%
[1]; in ethanol
  Stability of calcitriol (in words): good stability
[2]; +4° C., T 2 weeks
  Measured concentration of calcitriol in % relative to T0: 99.2%
[2]; +4° C., T 3 weeks
  Measured concentration of calcitriol in % relative to T0: 99.6%
[2]; +4° C., T 4 weeks
  Measured concentration of calcitriol in % relative to T0: 97.5%
[2]; +30° C., T 2 weeks
  Measured concentration of calcitriol in % relative to T0: 93.8%
[2]; +30° C., T 4 weeks
  Measured concentration of calcitriol in % relative to T0: 93.3%
[2]; −18° C., T 2 weeks
  Measured concentration of calcitriol in % relative to T0: 100.4%
[2]; −18° C., T 3 weeks
  Measured concentration of calcitriol in % relative to T0: 101.3%
[2]; −18° C., T 4 weeks
  Measured concentration of calcitriol in % relative to T0: 99.2%
[2]; in an ethanol/cyclopentasiloxane mixture
  Stability of calcitriol (in words): good stability
[3]; +4° C., T 2 weeks
  Measured concentration of calcitriol in % relative to T0: 98.3%
[3]; +4° C., T 4 weeks
  Measured concentration of calcitriol in % relative to T0: 105.2%
[3]; +40° C., T 2 weeks
  Measured concentration of calcitriol in % relative to T0: 91%
[3]; +40° C., T 4 weeks
  Measured concentration of calcitriol in % relative to T0: 93.8%
[3]; RT, T 2 weeks
  Measured concentration of calcitriol in % relative to T0: 95.1%
[3]; RT, T 4 weeks
  Measured concentration of calcitriol in % relative to T0: 98.0%
[3]; in Miglyol 812
  Stability of calcitriol (in words): good stability
[4]; +4° C., T 2 weeks
  Measured concentration of calcitriol in % relative to T0: 98.6%
[4]; +4° C., T 4 weeks
  Measured concentration of calcitriol in % relative to T0: 98.1%
[4]; +40° C., T 2 weeks
  Measured concentration of calcitriol in % relative to T0: 99.0%
[4]; +40° C., T 4 weeks
  Measured concentration of calcitriol in % relative to T0: 98.9%
[4]; RT, T 2 weeks
  Measured concentration of calcitriol in % relative to T0: 98.7%
[4]; RT, T 4 weeks
  Measured concentration of calcitriol in % relative to T0: 98.4%
[4]; in Cetiol SN
  Stability of calcitriol (in words): good stability
